≈ marks a conversion by molar mass, not a printed value.
Columns and labels:
Format in all cases: functional
[1] = system: Acinetobacter baumannii; test: Antimicrobial activity against Acinetobacter baumannii ATCC 19606 incubated for 18 hrs by broth microdilution method
[2] = system: Acinetobacter baumannii; test: Synergistic antimicrobial activity against Acinetobacter baumannii ATCC 19606 assessed as fractional inhibitory concentration index in presence of polymyxin E incubated for 18 to 20 hrs by chequerboard assay; conditions: time 18-20 hrs
[3] = system: Staphylococcus aureus; test: Antimicrobial activity against methicillin/ofloxacin-resistant Staphylococcus aureus ATCC 43300 assessed as minimum inhibitory concentration incubated for 18 hrs by broth microdilution method
[4] = system: Bacillus subtilis; test: Antimicrobial activity against Bacillus subtilis ATCC 20678 incubated for 18 hrs by broth microdilution method
[5] = system: Enterococcus faecalis; test: Antimicrobial activity against vancomycin-resistant Enterococcus faecalis ATCC 51299 assessed as minimum inhibitory concentration incubated for 18 hrs by broth microdilution method

Row | Structure (SMILES) | MIC [1] [µg/mL] | fractional inhibitory concentration index (FICI) [2] | MIC [3] [µg/mL] | MIC [4] [µg/mL] | MIC [5] [µg/mL]
1 | Fc1cc(Nc2nc(-c3cccs3)cs2)cc(C(F)(F)F)c1 | > 256 | 0.187 | 64 (≈ 186 µM) | 4 (≈ 11.6 µM) | 8 (≈ 23.2 µM)
2 | Cc1cc(C(F)(F)F)ccc1Nc1nc(-c2ccc(F)cc2F)cs1 | > 256 | 0.094 | 256 (≈ 691 µM) | 4 (≈ 10.8 µM) | 256 (≈ 691 µM)
3 | COc1ccc(Nc2nc(-c3ccc(F)cc3F)cs2)cc1C(F)(F)F | > 256 | 0.094 | 8 (≈ 20.7 µM) | 4 (≈ 10.4 µM) | 8 (≈ 20.7 µM)
4 | Fc1ccc(-c2csc(Nc3c(Cl)cc(C(F)(F)F)cc3Cl)n2)c(F)c1 | > 256 | 1.031 | 256 (≈ 602 µM) | 256 (≈ 602 µM) | 256 (≈ 602 µM)
5 | COc1cc(Nc2nc(-c3ccc(F)cc3F)cs2)cc(C(F)(F)F)c1 | > 128 | 0.187 | 256 (≈ 663 µM) | 2 (≈ 5.18 µM) | 256 (≈ 663 µM)
6 | Fc1ccc(-c2csc(Nc3ccncc3)n2)c(F)c1 | 128 (≈ 442 µM) | 1.031 | 4 (≈ 13.8 µM) | 4 (≈ 13.8 µM) | 32 (≈ 111 µM)
7 | Fc1ccc(-c2csc(Nc3cc(Cl)cc(C(F)(F)F)c3)n2)c(F)c1 | > 256 | 0.156 | 4 (≈ 10.2 µM) | 4 (≈ 10.2 µM) | 2 (≈ 5.12 µM)
8 | C/C(=N\NC1=NCCN1)c1csc(Nc2cc(F)cc(C(F)(F)F)c2)n1 | > 256 | 0.75 | 16 (≈ 41.4 µM) | 8 (≈ 20.7 µM) | 16 (≈ 41.4 µM)
9 | C/C(=N\Nc1ccc(Cl)nn1)c1csc(Nc2cc(F)cc(C(F)(F)F)c2)n1 | > 256 | 0.75 | 64 (≈ 149 µM) | 256 (≈ 594 µM) | 256 (≈ 594 µM)
10 | Fc1cc(Nc2nc(-c3ccncc3)cs2)cc(C(F)(F)F)c1 | 128 (≈ 377 µM) | 1.031 | 64 (≈ 189 µM) | 256 (≈ 754 µM) | 256 (≈ 754 µM)
11 | Fc1cc(Nc2nc(-c3cccnc3)cs2)cc(C(F)(F)F)c1 | 128 (≈ 377 µM) | 1.031 | 64 (≈ 189 µM) | 256 (≈ 754 µM) | 256 (≈ 754 µM)
12 | CC(C)(C)c1csc(Nc2cc(F)cc(C(F)(F)F)c2)n1 | > 256 | 0.156 | 8 (≈ 25.1 µM) | 4 (≈ 12.6 µM) | 8 (≈ 25.1 µM)
13 | CCOc1ccc(Nc2nc(-c3ccc(F)cc3F)cs2)cc1C(F)(F)F | > 256 | 0.094 | 8 (≈ 20 µM) | 4 (≈ 9.99 µM) | 4 (≈ 9.99 µM)
14 | Oc1cc(Nc2nc(-c3ccc(F)cc3F)cs2)cc(C(F)(F)F)c1 | > 256 | 0.25 | 1 (≈ 2.69 µM) | 0.5 (≈ 1.34 µM) | 256 (≈ 688 µM)
15 | Fc1cc(Nc2nc(-c3ccccn3)cs2)cc(C(F)(F)F)c1 | 64 (≈ 189 µM) | 0.078 | 1 (≈ 2.95 µM) | 0.5 (≈ 1.47 µM) | 64 (≈ 189 µM)
16 | Fc1ccc(-c2csc(Nc3cc(C(F)(F)F)cc(C(F)(F)F)c3)n2)c(F)c1 | > 256 | 0.094 | 4 (≈ 9.43 µM) | 4 (≈ 9.43 µM) | 4 (≈ 9.43 µM)
17 | C/C(=N\Nc1cc(O)ncn1)c1csc(Nc2cc(F)cc(C(F)(F)F)c2)n1 | > 256 | 0.562 | 128 (≈ 310 µM) | 256 (≈ 621 µM) | 256 (≈ 621 µM)
18 | C/C(=N\Nc1ccccc1)c1csc(Nc2cc(F)cc(C(F)(F)F)c2)n1 | 64 (≈ 162 µM) | 0.375 | 16 (≈ 40.6 µM) | 16 (≈ 40.6 µM) | 16 (≈ 40.6 µM)

Source: ChEMBL document CHEMBL6127088, “Novel 2-aminothiazole analogues both as polymyxin E synergist and antimicrobial agent against multidrug-resistant Gram-positive bacteria” (2024)
